“And” between values parts separate entries of the source, which are not always exact repeats. Identical values can stand only once.
System: SYO-1 complex spheroid growth, percent test/control
Assay: Anticancer human tumor SYO-1 cell line growth inhibition [Asc];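 note: compound exposure lasted 7 days after spheroids grew 3 days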;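 for viability, T/C: 100% = DMSO vehicle control viability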
Details: for viability, T/C: stronger effect = lower value
Protocol: Multicellular complex tumor spheroid response to apoptosis pathway targeting inhibitors Alrizomadlin, Pelcitoclax, and Dasminapant in combination with a variety of drugs and investigational agents in selected tumor cell lines
The MDM2 inhibitor alrizomadlin, the Bcl-2/Bcl-xL inhibitor pelcitoclax, and the IAPs inhibitor dasminapant were evaluated both individually and in combination with standard of care and investigational anticancer small molecules within a complex spheroid model of solid tumors. . Complex spheroids include a stromal component modeled by human endothelial cells (HUVEC) and fibroblasts modeled by human mesenchymal stem cells (MSCs). The concentration ranges selected for each drug and investigational agent were based upon clinically achievable concentrations if the clinical Cmax of the agent was known.
Compounds. The drugs and investigational agents: alrizomadlin (APG-115; NSC831270), pelcitoclax (APG-1252; NSC835773), dasminapant (APG-1387;NSC834197), TAK-243 (NSC785004), copanlisib (NSC809693), olaparib (NSC753686), talazoparib (NSC767125), cobimetinib (NSC 768068), eltanexor (KPT-8602, NSC 794443), abemaciclib (NSC 768073), sotorasib (NSC818433), adagrasib (NSC 831453), MRTX-1133 (NSC 836407), Iadademestat (ORY1001, NSC 806812), and RMC-4630 (NSC839698), were obtained from the NCI Developmental Therapeutics Program Chemical Repository. The FDA-approved anticancer drug set is available from the Developmental Therapeutics Program at https://dtp.cancer.gov/organization/dscb/obtaining/available plates.htm. […] The stock solutions were prepared in dimethyl sulfoxide (DMSO, Sigma-Aldrich, St. Louis, MO, cat. D2650) at 800-fold the tested concentration and stored at -70 degrees C prior to their use. All drugs and investigational agents were tested over a range starting from a high concentration at or near the clinical Cmax and decreasing in half-log increments. If the clinical Cmax for an agent had not been determined, the highest concentration tested was 10 microM.
The patient-derived cancer (PDC) cell lines include five colon adenocarcinomas: 186277-243-T-J2-PDC, 616215-338-R-J1-PDC, 439559-082-T-J2-PDC, 463943-066-T-J2-PDC, and 519858-162-T-J1-PDC; three pancreatic carcinomas: 323965-272-R-J2-PDC, 521955-158-R6-J3-PDC, and 521955-158-R2-J5-PDC; two uterine sarcomas: 327498-152-R-J2-PDC and 993429-296-R-J1-PDC; two rhabdomyosarcomas: 755483-174-R-J1-PDC and 772245-204-R-J1-PDC; two soft tissue sarcomas: 126254-015-R-J1-PDC and 494315-158-R-J1-PDC; two malignant fibrous histiocytomas: 317291-083-R-J1-PDC and 596521-263-R-J1-PDC; two breast carcinomas: 171881-019-R-J1-PDC and 885512-296-R-J2-PDC; and one ovarian carcinoma: 6556581-035-R-J-PDC were obtained from the NCI PDMR, (https://pdmr.cancer.gov). The established cell lines HSSY-2 synovial sarcoma (RRID:CVCL 8719), SYO-1 synovial sarcoma (RRID:CVCL_7146), MPNST malignant peripheral neural sheath tumor were obtained from the Sloan Kettering Institute. The following established cell lines were purchased from the American Type Culture Collection (ATCC, Manassas, VA), Sor the received from the NCI repository:, PANC-1 pancreatic carcinoma (CRL-1469, RRID:CVCL_0480), OVCAR-5 ovarian carcinoma (RRID:CVCL_1628), OVCAR-8 ovarian carcinoma (RRID:CVCL_1629), , MCF-7 breast carcinoma (CRL-12584, RRID:CVCL_0031), MDA-MB-231 breast carcinoma (CRL-12532, RRID:CVCL_0062), NCI-H1876 small cell lung carcinoma (CRL-5902, RRID:CVCL_1503), NCI-H510A small cell lung carcinoma (HTB-184, RRID:CVCL_1565), NCI-H1417 (CRL-5869, RRID:CVCL_1469), and NCI-H196 small cell lung carcinoma (CRL-5823, RRID:CVCL_1509). Dr. Peter Houghton (Greehey Children's Cancer Research Institute, University of Texas Health Science Center, San Antonio, TX) provided Rh-18 rhabdomyosarcoma (RRID:CVCL_1659). Pooled donor human umbilical vein endothelial cells (HUVEC, Lonza, cat. CC-2519) and human mesenchymal stem cells (hMSC, Lonza, cat. PT-2501) were purchased from Lonza (Walkersville, MD).
Cell Culture. […]

| Structure (SMILES) | viability, T/C (compound 0.0316 µM) | viability, T/C (compound 0.1 µM) | viability, T/C (compound 0.316 µM) | viability, T/C (compound 1 µM) | viability, T/C (compound 3.16 µM) | viability, T/C (compound 10 µM) | IC50 (curve of compound) | viability, T/C (compound 0.00949 µM) | viability, T/C (compound 0.03 µM) | viability, T/C (compound 0.3 µM) | viability, T/C (compound 0.949 µM) | viability, T/C (compound 3 µM) | IC50 (compound alone, run of 11/07/2022) | viability, T/C (compound 0.00316 µM) | viability, T/C (compound 0.01 µM) | IC50 (compound alone, run of 10/24/2022) | IC50 (compound alone, run of 11/15/2022) |
| --- | --- | --- | --- | --- | --- | --- | --- | --- | --- | --- | --- | --- | --- | --- | --- | --- | --- |
| C#Cc1c(F)ccc2cc(O)cc(-c3ncc4c(N5CC6CCC(C5)N6)nc(OCC56CCCN5CC(F)C6)nc4c3F)c12 (stereo not given) | 111% and 98.5% and 108% | 95.5% and 92.2% and 96.9% | 108% and 95.5% and 110% | 98.9% and 101% and 109% | 111% and 117% and 105% | 105% and 97.4% and 103% | > 10000 nM |  |  |  |  |  |  |  |  |  |  |
| C=C(F)C(=O)N1CCN(c2nc(OCC3CCCN3C)nc3c2CCN(c2cccc4cccc(Cl)c24)C3)CC1CC#N (stereo not given) | 107% and 98.8% and 99.1% | 102% (2×) and 96.3% | 97.5% and 101% and 100% | 95.2% and 101% and 113% | 97.3% and 90.3% and 92.2% | 0.28% and 0.79% and 0.39% | 5540 nM and 5310 nM and 5370 nM |  |  |  |  |  |  |  |  |  |  |
| C=CC(=O)N1CCN(c2nc(=O)n(-c3c(C)ccnc3C(C)C)c3nc(-c4c(O)cccc4F)c(F)cc23)C(C)C1 (stereo not given) | 100% and 96.9% and 116% | 108% and 98.8% and 106% | 104% (2×) and 99.7% | 103% (2×) and 104% | 98.7% and 95.2% and 101% | 94.3% and 87.2% and 89.7% | > 10000 nM |  |  |  |  |  |  |  |  |  |  |
| CCN1C(C(=O)NC23CCC(C(=O)O)(CC2)CC3)C(c2cccc(Cl)c2F)C2(C(=O)Nc3cc(Cl)ccc32)C12CCCCC2 (stereo not given) |  |  |  |  |  |  | 142 nM and 178 nM | 103% [middle of 9 runs] | 99.3% [middle of 9 runs] | 25.9% [middle of 9 runs] | 3.45% [middle of 9 runs] | 1.23% [middle of 9 runs] | 189 nM [middle of 7 runs] |  |  |  |  |
| CCN1CCN(Cc2ccc(Nc3ncc(F)c(-c4cc(F)c5nc(C)n(C(C)C)c5c4)n3)nc2)CC1 | 107% and 106% and 109% | 114% and 118% and 115% | 115% and 128% and 112% | 106% and 111% and 112% |  |  | > 1000 nM |  |  |  |  |  |  | 103% (2×) and 101% | 99.9% and 103% and 110% |  |  |
| CNC(C)C(=O)NC1CN(S(=O)(=O)c2cccc(S(=O)(=O)N3CCC4CCC(C(=O)NC(c5ccccc5)c5ccccc5)N4C(=O)C(NC(=O)C(C)NC)C3)c2)CCC2CCC(C(=O)NC(c3ccccc3)c3ccccc3)N2C1=O (stereo not given) | 98.2% [middle of 14 runs] |  | 98.7% [middle of 14 runs] | 96.6% [middle of 14 runs] |  |  | > 1000 nM |  |  |  |  |  |  | 109% and 90.1% and 99.2% | 102% [middle of 14 runs] | > 1000 nM | > 1000 nM |
| COc1c(OCCCN2CCOCC2)ccc2c3n(c(=NC(=O)c4cnc(N)nc4)nc12)CCN3 | 95.3% and 108% and 113% | 95.4% and 101% and 107% | 76.1% and 87.7% and 90.5% | 40.2% and 46.1% and 63.6% |  |  | 741 nM and 900 nM and > 1000 nM |  |  |  |  |  |  | 111% and 102% and 109% | 105% and 112% and 114% |  |  |

Reference: PubChem BioAssay AID1963432 (Molecular Pharmacology Branch, DTP, NCI, 2024)
